Numbers after ± are expanded uncertainties.
Settings: for surface tension liquid-gas: Pendant drop shape; for viscosity / mass density: 101.33 kPa, Liquid; for viscosity: Falling or rolling sphere viscometry; for mass density: Vibrating tube method

| Compound | surface tension liquid-gas (298.15 K) [mN/m] | viscosity (298.15 K) [mPa·s] | mass density (298.15 K) [kg/m3] | surface tension liquid-gas (313.15 K) [mN/m] | viscosity (313.15 K) [mPa·s] | mass density (313.15 K) [kg/m3] |
| --- | --- | --- | --- | --- | --- | --- |
| COS(=O)(=O)[O-].Cn1cc[n+](C)c1 [1,3-dimethylimidazolium methylsulfate] | 59.42 ± 0.8 | 75.5 ± 4.7 | 1328.38 ± 1.6 | 58.99 ± 0.8 | 40.8 ± 2.5 | 1317.85 ± 1.6 |
| CCCCn1cc[n+](C)c1.CCOS(=O)(=O)[O-] [1-butyl-3-methyl-1H-imidazolium ethyl sulfate] | 36.38 ± 0.51 | 379.1 ± 33 | 1198.93 ± 1.3 | 33.91 ± 0.48 | 164 ± 12 | 1188.69 ± 1.2 |
| CCCCn1cc[n+](C)c1.COS(=O)(=O)[O-] [1-butyl-3-methylimidazolium methyl sulfate] | 43.3 ± 1.2 | – | 1212.95 ± 8 | 42.09 ± 1.1 | 104.2 ± 7.7 | 1199.75 ± 7.8 |
| CCOS(=O)(=O)[O-].CCn1cc[n+](C)c1 [1-ethyl-3-methylimidazolium ethyl sulfate] | – | 91.8 ± 6.2 | 1236.26 ± 8.3 | 46.78 ± 1.2 | 48.5 ± 3.2 | 1226.79 ± 8.2 |
| CCCCCCn1cc[n+](C)c1.CCOS(=O)(=O)[O-] [1-hexyl-3-methylimidazolium ethyl sulfate] | 31.77 ± 0.45 | 589 ± 57 | 1150.6 ± 1.2 | 29.63 ± 0.43 | 236 ± 19 | 1140.6 ± 1.1 |
| CCCCCCn1cc[n+](C)c1.COS(=O)(=O)[O-] [1-hexyl-3-methylimidazolium methyl sulfate] | 33.59 ± 0.48 | 383 ± 34 | 1168.83 ± 1.2 | 33.54 ± 0.48 | 164.3 ± 12 | 1158.87 ± 1.2 |
| CCCCCCCC[n+]1ccn(C)c1.CCOS(=O)(=O)[O-] [1-methyl-3-octylimidazolium ethyl sulfate] | 28.67 ± 0.41 | – | 1115.93 ± 1.1 | 27.94 ± 0.41 | 275.2 ± 25 | 1106.2 ± 1.1 |
| CCCCCCCC[n+]1ccn(C)c1.COS(=O)(=O)[O-] [1-methyl-3-octylimidazolium methyl sulfate] | 30.41 ± 0.44 | – | 1114.47 ± 1.1 | 30.03 ± 0.43 | 180.6 ± 15 | 1104.64 ± 1.1 |

From the NIST ThermoML archive (doi:10.1021/je800863c)
